Measured values as given in ChEMBL document CHEMBL3885881, “DrugMatrix”.

Organism: Rattus norvegicus
Assay: DrugMatrix - Regimen: Daily Repeat
Format: toxicity, organism-based, Sprague-Dawley
Parameters: regimen Daily Repeat, gender Male, age 6-8 weeks
Settings: in vivo, po, route oral GAVAGE, vehicle .5 % CMC; for ABSOLUTE BASOPHIL / ABSOLUTE EOSINOPHIL / ABSOLUTE LYMPHOCYTE / ABSOLUTE MONOCYTE / ABSOLUTE SEGMENTED NEUTROPHIL / BASOPHIL / EOSINOPHIL / ERYTHROCYTE COUNT / HEMATOCRIT / HEMOGLOBIN / LEUKOCYTE COUNT / LYMPHOCYTE / MEAN CORPUSCULAR HEMOGLOBIN / MEAN CORPUSCULAR HEMOGLOBIN CONCENTRATION / MEAN CORPUSCULAR VOLUME / MONOCYTE / NEUTROPHIL / NUCLEATED RED BLOOD CELLS / PLATELET COUNT: tissue Blood; for ALANINE AMINOTRANSFERASE / ALBUMIN / ALKALINE PHOSPHATASE / ASPARTATE AMINOTRANSFERASE / BLOOD UREA NITROGEN / CARBON DIOXIDE / CHLORIDE / CHOLESTEROL / CREATINE PHOSPHOKINASE / CREATININE / GLUCOSE / LACTATE DEHYDROGENASE / LIPASE / PHOSPHORUS / POTASSIUM / SODIUM / TOTAL BILIRUBIN / TOTAL PROTEIN / URIC ACID: tissue Plasma
[1] = 0 mg/kg, 72 h, dose level Control, time 3 day
[2] = 0 mg/kg, 120 h, dose level Control, time 5 day
[3] = 10 mg/kg, 72 h, dose level Low, time 3 day

## O=C1CN=C(c2ccccc2Cl)c2cc([N+](=O)[O-])ccc2N1 [CLONAZEPAM]
[1]
  ABSOLUTE BASOPHIL: 0 CELLS/uL
  ABSOLUTE EOSINOPHIL: 0 CELLS/uL
  ABSOLUTE LYMPHOCYTE: 12191.17 CELLS/uL
  ABSOLUTE MONOCYTE: 183.17 CELLS/uL
  ABSOLUTE SEGMENTED NEUTROPHIL: 1192.33 CELLS/uL
  BASOPHIL: 0%
  EOSINOPHIL: 0%
  ERYTHROCYTE COUNT: 5.51 x10E6/uL
  HEMATOCRIT: 35.45%
  HEMOGLOBIN: 13.82 G/DL
  LEUKOCYTE COUNT: 13.57 x10E3/uL
  LYMPHOCYTE: 89.83%
  MEAN CORPUSCULAR HEMOGLOBIN: 25.1 pg
  MEAN CORPUSCULAR HEMOGLOBIN CONCENTRATION: 38.98 G/DL
  MEAN CORPUSCULAR VOLUME: 64.42 fL
  MONOCYTE: 1.33%
  NEUTROPHIL: 8.83%
  NUCLEATED RED BLOOD CELLS: 0 /100WBC
  PLATELET COUNT: 1118.17 x10E3/uL
  ALANINE AMINOTRANSFERASE: 55 u/L
  ALBUMIN: 4.15 G/DL
  ALKALINE PHOSPHATASE: 449.5 u/L
  ASPARTATE AMINOTRANSFERASE: 112.83 u/L
  BLOOD UREA NITROGEN: 17.33 mg/dL
  CARBON DIOXIDE: 29.5 mmol/L
  CHLORIDE: 101 MEQ/L
  CHOLESTEROL: 70 mg/dL
  CREATINE PHOSPHOKINASE: 1325.83 u/L
  CREATININE: 0.18 mg/dL
  GLUCOSE: 171.5 mg/dL
  LACTATE DEHYDROGENASE: 386 u/L
  LIPASE: 10 u/L
  PHOSPHORUS: 11.57 mg/dL
  POTASSIUM: 6.21 MEQ/L
  SODIUM: 141.65 MEQ/L
  TOTAL BILIRUBIN: 0.15 mg/dL
  TOTAL PROTEIN: 5.75 G/DL
  URIC ACID: 1.28 mg/dL
[2]
  ABSOLUTE BASOPHIL: 0 CELLS/uL
  ABSOLUTE EOSINOPHIL: 138.17 CELLS/uL
  ABSOLUTE LYMPHOCYTE: 13283.17 CELLS/uL
  ABSOLUTE MONOCYTE: 303.83 CELLS/uL
  ABSOLUTE SEGMENTED NEUTROPHIL: 1308.17 CELLS/uL
  BASOPHIL: 0%
  EOSINOPHIL: 1%
  ERYTHROCYTE COUNT: 5.32 x10E6/uL
  HEMATOCRIT: 33.8%
  HEMOGLOBIN: 13.63 G/DL
  LEUKOCYTE COUNT: 15.03 x10E3/uL
  LYMPHOCYTE: 88.33%
  MEAN CORPUSCULAR HEMOGLOBIN: 25.68 pg
  MEAN CORPUSCULAR HEMOGLOBIN CONCENTRATION: 40.35 G/DL
  MEAN CORPUSCULAR VOLUME: 63.67 fL
  MONOCYTE: 1.83%
  NEUTROPHIL: 8.83%
  NUCLEATED RED BLOOD CELLS: 0 /100WBC
  PLATELET COUNT: 1097.5 x10E3/uL
  ALANINE AMINOTRANSFERASE: 54.5 u/L
  ALBUMIN: 4.27 G/DL
  ALKALINE PHOSPHATASE: 337 u/L
  ASPARTATE AMINOTRANSFERASE: 94.67 u/L
  BLOOD UREA NITROGEN: 17 mg/dL
  CARBON DIOXIDE: 28.33 mmol/L
  CHLORIDE: 101.5 MEQ/L
  CHOLESTEROL: 71.33 mg/dL
  CREATINE PHOSPHOKINASE: 628.17 u/L
  CREATININE: 0.19 mg/dL
  GLUCOSE: 177.83 mg/dL
  LACTATE DEHYDROGENASE: 500.5 u/L
  LIPASE: 9.5 u/L
  PHOSPHORUS: 12.3 mg/dL
  POTASSIUM: 5.63 MEQ/L
  SODIUM: 143.03 MEQ/L
  TOTAL BILIRUBIN: 0.2 mg/dL
  TOTAL PROTEIN: 6.02 G/DL
  URIC ACID: 1.5 mg/dL
[3]
  ABSOLUTE BASOPHIL: 0 CELLS/uL
  ABSOLUTE EOSINOPHIL: 0 CELLS/uL
  ABSOLUTE LYMPHOCYTE: 12266.67 CELLS/uL
  ABSOLUTE MONOCYTE: 135.33 CELLS/uL
  ABSOLUTE SEGMENTED NEUTROPHIL: 664.67 CELLS/uL
  BASOPHIL: 0%
  EOSINOPHIL: 0%
  ERYTHROCYTE COUNT: 5.48 x10E6/uL
  HEMATOCRIT: 35.23%
  HEMOGLOBIN: 13.73 G/DL
  LEUKOCYTE COUNT: 13.07 x10E3/uL
  LYMPHOCYTE: 93.33%
  MEAN CORPUSCULAR HEMOGLOBIN: 25.1 pg
  MEAN CORPUSCULAR HEMOGLOBIN CONCENTRATION: 38.97 G/DL
  MEAN CORPUSCULAR VOLUME: 64.3 fL
  MONOCYTE: 1.33%
  NEUTROPHIL: 5.33%
  NUCLEATED RED BLOOD CELLS: 0 /100WBC
  PLATELET COUNT: 1157.67 x10E3/uL
  ALANINE AMINOTRANSFERASE: 58.33 u/L
  ALBUMIN: 4.1 G/DL
  ALKALINE PHOSPHATASE: 310 u/L
  ASPARTATE AMINOTRANSFERASE: 85.33 u/L
  BLOOD UREA NITROGEN: 17.67 mg/dL
  CARBON DIOXIDE: 27.67 mmol/L
  CHLORIDE: 101.67 MEQ/L
  CHOLESTEROL: 69.33 mg/dL
  CREATINE PHOSPHOKINASE: 333.33 u/L
  CREATININE: 0.16 mg/dL
  GLUCOSE: 163 mg/dL
  LACTATE DEHYDROGENASE: 104.33 u/L
  LIPASE: 10 u/L
  PHOSPHORUS: 11.3 mg/dL
  POTASSIUM: 6.13 MEQ/L
  SODIUM: 142.3 MEQ/L
  TOTAL BILIRUBIN: 0.1 mg/dL
  TOTAL PROTEIN: 5.6 G/DL
  URIC ACID: 1.73 mg/dL
